Where “and” joins values, the source holds several entries; their conditions need not be identical. Identical values can stand only once.
What was measured:
human plasma proteins = assay: Binding to human plasma proteins; type: in vitro ADME; conditions: for Protein binding (%): human plasma, 37 °C, n = 2; for Binding rate to human plasma proteins: overall statement, incubation up to 120 min
Protocol: Binding to human plasma proteins was determined following this procedure: 10 µL of the ⁶⁸Ga-P15 with radioactivity of 45 kBq/100 µL was mixed with 190 µL of human plasma. The sample was then incubated at 37 °C. After 0, 30, 60 and 120 min 25 µL of the sample was collected, applied to the appropriate column and centrifuged at 2000 g for 2 minutes. The radioactivity of the samples was then measured using a gamma counter 2480 Wizard^2 (PerkinElmer, Waltham, MA, USA), and then the binding to plasma proteins was calculated using the following formula % plasma protein binding = (Aelution/Atotal)×100. The same procedure was applied when determining binding to plasma proteins of ⁶⁸Ga-P16, ⁶⁸Ga-P19, and ⁶⁸Ga-PSMA-617.

[1] = Stability in human plasma/serum (radiochemical purity by HPLC); type: in vitro ADME; conditions: for Stability in human serum (%): radiochemical purity, 37 °C, n = 1
Protocol: Quality control, i.e. radiochemical purity, of the ^68Ga-labelled PSMA inhibitors was evaluated by analytical high performance liquid chromatography (HPLC; Dionex UltiMate 3000, Thermo Scientific, Waltham, Massachusetts, USA) using the following equipment: ACE 3 C18 column; 150 × 3 mm, 3 μm (Advanced Chromatography Technologies Ltd, Aberdeen, UK), with gradient elution A: H2O/acetonitrile (ACN); B:0.1% trifluoroacetic acid (TFA)/H2O: 0–3 min, 0% ACN; 3–10 min, 0 − 50% ACN; 10–13 min, 50 − 80% ACN; 13–15 min, 80–0% ACN, for 15 min at a flow rate of 1 mL/min. Radiometric detection was performed using a GABI Star radiodetector (Raytest GmbH, Straubenhardt, Germany) and for chromatogram quantification Chromatography Data System (CDS) - Chromeleon software (Thermo Scientific, USA) was used. The actual sample injection was performed using a Hamilton microinjector (Hamilton, USA).
Plasma stability was determined as follows. To 100 µL of ⁶⁸Ga-P15 with radioactivity of 45 kBq/100 µL, 400 µL of human plasma was added and mixed. The mixture was incubated at 37 °C and 100 µL samples were taken at 30, 60 and 120 min. These samples were then mixed with 200 µL of acetonitrile and placed on a shaker for 1 min. The sample was then centrifuged at 15,000 rpm for 3 min. After centrifugation, the supernatant was collected for radiochemical purity analysis by HPLC. The same procedure was applied when determining plasma stability of ⁶⁸Ga-P16, ⁶⁸Ga-P19, and ⁶⁸Ga-PSMA-617.

Row | SMILES | Protein binding (%) (human plasma proteins; incubation time 0 min) | Protein binding (%) (human plasma proteins; incubation time 30 min) | Protein binding (%) (human plasma proteins; incubation time 60 min) | Protein binding (%) (human plasma proteins; incubation time 120 min) | Binding rate to human plasma proteins (human plasma proteins) | Stability in human serum (%) ([1]; incubation time 30 min) | Stability in human serum (%) ([1]; incubation time 60 min) | Stability in human serum (%) ([1]; incubation time 120 min) | Radiochemical purity in human blood serum/plasma ([1]; 37 °C, 30, 60 and 120 min)
1 | O=C([O-])CN1CCN(CC(=O)[O-])CCN(CC(=O)N[C@H]2CC[C@H](NC(=O)[C@@H](Cc3ccc4ccccc4c3)NC(=O)CC[C@H](NC(=O)N[C@@H](CCC(=O)O)C(=O)O)C(=O)O)CC2)CCN(CC(=O)[O-])CC1.[68Ga+3] [[^68Ga]Ga-P15] | 26.7% | 27.0% | 29% and 29.4% | 40% and 39.9% | ≤ 40% | 98.9% | 99.8% | 99.4% | –
2 | O=C([O-])CN1CCN(CC(=O)[O-])CCN(CC(=O)N[C@H]2CC[C@H](NC(=O)[C@H](Cc3ccc4ccccc4c3)NC(=O)CC[C@H](NC(=O)N[C@@H](CCC(=O)O)C(=O)O)C(=O)O)CC2)CCN(CC(=O)[O-])CC1.[68Ga+3] [[^68Ga]Ga-P16] | 10% and 10.2% | 10.9% | 10.8% | 13% and 13.4% | ≤ 40% | 98.8% | 98.3% | 97.3% | above 97%
3 | O=C([O-])CN1CCN(CC(=O)[O-])CCN(CC(=O)NCc2ccc(C(=O)N[C@H](C(=O)NCCCC[C@H](NC(=O)N[C@@H](CCC(=O)O)C(=O)O)C(=O)O)C(c3ccccc3)c3ccccc3)cc2)CCN(CC(=O)[O-])CC1.[68Ga+3] [[^68Ga]Ga-P19] | 56.6% | 59% and 58.8% | 58% and 57.7% | 58% and 58.2% | – | 99.3% | 99.8% | 99.9% | –

Source: paper PMC12474757, “Paving the way for future PSMA inhibitors: insights from comparative preclinical evaluations of structure modifications” (EJNMMI Radiopharmacy and Chemistry, 2025)
